Here are results for three compounds from PMC9643456, “Matching amino acids membrane preference profile to improve activity of antimicrobial peptides” (Communications Biology, 2022).

Experiment in all cases: microbe, parasite or virus in culture
One assay relates to A. baumannii KCCM 40203. The conditions noted are these: Acinetobacter baumannii, KCCM40203, read-out: MIC at resistance induction condition, A. baumannii KCCM 40203. As to the method: (§1) To assess antimicrobial activity, the MIC50 and MIC90 were measured using broth microdilution following CLSI guidelines. […] Each experiment was performed in triplicate. Meropenem (Sigma, Darmstadt, Germany) and colistin were used as control antibiotics. Cation-adjusted Mueller–Hinton broth (CAMHB) (Becton, Dickinson and Company, Franklin Lakes, USA) with supplied calcium (50 mg/L) and magnesium (10 mg/L) was used for the CLSI-test condition. Bacteria in midlog phase and peptides were separately diluted in CAMHB. The bacteria and peptide solutions were then mixed in 96-well polyethylene plates (SPL, Gyeonggi-do, Korea) and incubated for 18 h at 37 °C. The final concentration for bacteria was 5 × 10^5 CFU/ml. […] The MIC was defined to be the lowest concentration of peptide without visible turbidity by comparing with control antibiotics with the unaided eye. […] Each experiment was performed in triplicate. MICs in albumin and acetic acid solutions were measured using the same protocol but with 0.2% bovine serum albumin (Bovogen, Keilor, Australia), 0.01% acetic acid (Merck, New Jersey, USA), and CAMHB with both calcium and magnesium. In addition, MICs used in the antibiotic resistance acquisition test, the outer–inner membrane permeation test, and the transmembrane potential test and for FE-SEM were individually determined. The final bacterial concentrations used were as follows: for resistance acquisition, optical density (OD) 0.01; for outer–inner membrane permeability assays (LB), OD 0.1; for the transmembrane potential test, 1 × 10^8 CFU/ml (OD 0.171); […]. Inhibitory activity unidentifiable by direct observation was determined by counting the CFUs. Each experiment was performed at least twice.
A. baumannii (KCCM 40203) and S. aureus (KCTC 1621) were selected as drug-sensitive bacteria. Mutation-susceptible tetracycline (an antibiotic that targets ribosomes) (Sigma, Darmstadt, Germany) and ofloxacin (an antibiotic that targets DNA gyrase) (Sigma, Darmstadt, Germany), mutation-resistant colistin (an antibiotic that targets lipopolysaccharide) (Sigma, Darmstadt, Germany) and vancomycin (an antibiotic that targets peptidoglycan pentapeptide) (Sigma, Darmstadt, Germany) were used as control antibiotics. The MIC for each antibiotic against bacteria (at OD 0.01) was measured. […] The MIC for each passage was confirmed by additional broth microdilutions under CLSI guidelines. Resistance acquisition was induced for 30 days (30 passages), and each MIC value was confirmed by an independent MIC test against bacteria at each passage.

A further assay deals with S. aureus KCTC 1621. In kind it is cell-based. The conditions noted are these: Staphylococcus aureus, KCTC1621, read-out: MIC at resistance induction condition, S. aureus KCTC 1621. As to the method: as §1
A. baumannii (KCCM 40203) and S. aureus (KCTC 1621) were selected as drug-sensitive bacteria. […] The MIC for each antibiotic against bacteria (at OD 0.01) was measured. […]

The subject of another assay is E. aerogenes NCCP 16285. The conditions noted are these: Klebsiella aerogenes, NCCP16285, read-out: MIC, E. aerogenes NCCP 16285. As to the method:
as §1

The test system of a further assay is MDR E. faecalis. Conditions: Enterococcus faecalis, ATCC51575, 18 h, read-out: Minimum inhibitory concentrations, MDR E. faecalis. The method, boiled down:
(§2)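 Broth microdilution per CLSI in cation-adjusted Mueller–Hinton broth with added calcium (50 mg/L) and magnesium (10 mg/L); mid-log bacteria at a final 5 × 10^5 CFU/ml were incubated with peptide for 18 h at 37 °C. MIC was the lowest concentration without visible turbidity, in triplicate.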

The test system of another assay is MDR S. aureus. The conditions noted are these: Staphylococcus aureus, KCCM40510, 18 h, read-out: Minimum inhibitory concentrations, MDR S. aureus. The method, boiled down:
as §2

The subject of another assay is MDR P. aeruginosa. Conditions: Pseudomonas aeruginosa, CCARM2180, 18 h, read-out: Minimum inhibitory concentrations, MDR P. aeruginosa. The method, boiled down: as §2
In a further assay the test system is MDR A. baumannii. The conditions noted are these: Acinetobacter baumannii, ATCCBAA1605, 18 h, read-out: Minimum inhibitory concentrations, MDR A. baumannii. In a few lines: as §2
A further assay has as its system K. pneumonia strains. The conditions noted are these: Klebsiella pneumoniae, read-out: MIC, K. pneumonia NCCP 16125. How it is done: Twenty-six A. baumannii strains were clinically isolated and gifted to us by the Kyungpook National University School of Medicine. One A. baumannii strain (ATCC 17978) was purchased and gifted to us by Kyungpook National University School of Medicine. One A. baumannii strain and 10 K. pneumoniae strains (NCCP) were purchased from the National Culture Collection for Pathogens.
as §1

≈ marks a conversion by molar mass, not a printed value.

As to `CC1COc2c(N3CCN(C)CC3)c(F)cc3c(=O)c(C(=O)O)cn1c23` (stereo not drawn) [Ofloxacin], the MIC with A. baumannii KCCM 40203 and in the assay with S. aureus KCTC 1621 was 1.25 µM (≈ 0.452 µg/mL) each time.

For `CN(C)[C@@H]1C(O)=C(C(N)=O)C(=O)[C@@]2(O)C(O)=C3C(=O)c4c(O)cccc4[C@@](C)(O)[C@H]3C[C@@H]12` [Tetracycline], the MIC with A. baumannii KCCM 40203 and in the assay with S. aureus KCTC 1621 was 1.25 µM (≈ 0.556 µg/mL) in each case.

With `CN[C@H](CC(C)C)C(=O)N[C@H]1C(=O)N[C@@H](CC(N)=O)C(=O)N[C@H]2C(=O)N[C@H]3C(=O)N[C@H](C(=O)N[C@H](C(=O)O)c4cc(O)cc(O)c4-c4cc3ccc4O)[C@H](O)c3ccc(c(Cl)c3)Oc3cc2cc(c3O[C@@H]2O[C@H](CO)[C@@H](O)[C@H](O)[C@H]2O[C@H]2C[C@](C)(N)[C@H](O)[C@H](C)O2)Oc2ccc(cc2Cl)[C@H]1O` [Vancomycin, reference compound], the MIC in the assay on E. aerogenes NCCP 16285 was more than 5 µM; in the assay on A. baumannii KCCM 40203, 1.25 µM (≈ 1.81 µg/mL); in the assay with MDR E. faecalis, more than 20 µM; in the assay with MDR S. aureus it was 1.25 µM (≈ 1.81 µg/mL); with MDR P. aeruginosa, more than 5 µM; in the assay on MDR A. baumannii, more than 5 µM. For the same compound, the MIC is more than 5 µM in the assay on K. pneumonia strains and 1.25 µM (≈ 1.81 µg/mL) in the assay with S. aureus KCTC 1621.
